Results published in paper PMC10890502, “Prevention of Protease-Induced Degradation of Desmoplakin via Small Molecule Binding” (Journal of Personalized Medicine, 2024).
Substitutions are numbered along the chain they refer to. Read-outs that look alike come from different tables or passages of the source.

Key:
Test in all cases: biochemical
sDSP (DSP178–627) [1] = biological target: T1, sDSP (DSP178–627) (Homo sapiens, UniProt P15924, S442F); parameters: FITC-sDSP S442F degradation by trypsin (1:50), fluorescence polarization after 60 min, per cent of protease-only control; conditions: degradation rate of DSP S442F by trypsin; read-out: % of control remaining
T1 construct: gene DSP; N-terminal spectrin repeat/SH3 fragment, residues 178-627; pGEX-1 GST fusion cut with thrombin, E. coli BL21(DE3); fluorescein-5-maleimide label on exposed cysteines (C405, C524)
T1 sequence (P15924 178-627 S442F): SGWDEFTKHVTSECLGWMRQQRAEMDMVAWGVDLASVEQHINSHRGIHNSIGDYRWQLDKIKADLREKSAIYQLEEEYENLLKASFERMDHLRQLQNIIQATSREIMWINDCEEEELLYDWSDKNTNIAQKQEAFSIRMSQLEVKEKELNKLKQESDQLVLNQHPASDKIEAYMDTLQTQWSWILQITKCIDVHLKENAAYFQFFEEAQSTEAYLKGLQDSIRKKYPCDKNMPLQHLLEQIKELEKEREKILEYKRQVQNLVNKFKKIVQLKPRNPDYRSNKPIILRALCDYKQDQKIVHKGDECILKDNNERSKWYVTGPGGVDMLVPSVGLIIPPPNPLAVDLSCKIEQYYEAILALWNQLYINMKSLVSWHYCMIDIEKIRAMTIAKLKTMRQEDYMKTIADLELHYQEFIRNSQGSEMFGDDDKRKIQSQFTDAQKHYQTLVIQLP
Description: Fluorescence Polarization (FP) assays were conducted in […] format using a BioTek Synergy H4 plate reader with polarization capacity (Agilent; Savage, MD, USA). All samples were run at 25 °C using PBS pH 7.4, 1 mM DTT, 10 mM CaCl2, 5% DMSO, and […] FITC- DSP178–627, with 500 μM of each drug. Trypsin, chymotrypsin, or calpain at either 1:50, 1:50, or 1:20 concentration was added directly before data collection with an average void time of 2 min. Control experiments in each plate were conducted in triplicate and consisted of DSP178–627 + DMSO + protease as a positive control and DSP178–627 + DMSO + [compound left out] + protease as a negative control. Only plates that had functional positive and negative controls were used in data analysis. Samples were excited at 485 nm, and polarization was monitored at 528 nm. Data were collected at 5 min increments for 1–3 h. A mutation that partially occludes the DSP calpain cleavage site rescues DSP protein levels. We next assessed whether protease-dependent cleavage can also be blocked by small molecules. We screened 2496 FDA-approved drugs for their ability to prevent trypsin-dependent cleavage of sDSP S442F in our FP assay (Figure 3A). […] No change in fluorescence polarization after an hour is indicative of 0% protein degradation rate, as occurs in the [compound left out] positive control. […] (A) sDSP S442F degradation in the presence of trypsin plus 2496 compounds from the Cayman chemical “FDA library”. A degradation rate of 100% indicates the same desmoplakin degradation rate with and without the addition of 500 μM drug while a 0% rate indicates no degradation, as judged by fluorescent polarization values after 1 h. A trypsin-only control and a trypsin + [compound left out] control is indicated. Protection (red lines) was arbitrarily set between 33% and −10%. […] (B) Example of how the data in A was generated.

sDSP (DSP178–627) [2] = biological target: T2, sDSP (DSP178–627) (Homo sapiens, UniProt P15924); parameters: FITC-sDSP degradation by calpain (1:20), fluorescence polarization after 60 min, per cent of calpain-only control; conditions: degradation rate of DSP WT by calpain; read-out: % of control remaining
T2 construct: gene DSP; N-terminal spectrin repeat/SH3 fragment, residues 178-627; pGEX-1 GST fusion cut with thrombin, E. coli BL21(DE3); fluorescein-5-maleimide label on exposed cysteines (C405, C524)
T2 sequence (P15924 178-627): T1 sequence (P15924 178-627 S442F) with F265S
Description: (§1) Fluorescence Polarization (FP) assays were conducted in […] format using a BioTek Synergy H4 plate reader with polarization capacity (Agilent; Savage, MD, USA). All samples were run at 25 °C using PBS pH 7.4, 1 mM DTT, 10 mM CaCl2, 5% DMSO, and […] FITC- DSP178–627, with 500 μM of each drug. Trypsin, chymotrypsin, or calpain at either 1:50, 1:50, or 1:20 concentration was added directly before data collection with an average void time of 2 min. Control experiments in each plate were conducted in triplicate and consisted of DSP178–627 + DMSO + protease as a positive control and DSP178–627 + DMSO + [compound left out] + protease as a negative control. Only plates that had functional positive and negative controls were used in data analysis. Samples were excited at 485 nm, and polarization was monitored at 528 nm. Data were collected at 5 min increments for 1–3 h. […] Therefore, we next tested whether these 62 compounds also prevent wildtype and variant DSP degradation in the presence of calpain. […] (A) Normalized fluorescent polarization of WT and sDSP variants in the presence of a 1:20 ratio of calpain plus 500 μM drug, as compared to calpain alone (black) (B) Identity and chemical structure of the six best-performing compounds.

sDSP (DSP178–627) [3] = biological target: T3, sDSP (DSP178–627) (Homo sapiens, UniProt P15924, R451G); parameters: FITC-sDSP degradation by calpain (1:20), fluorescence polarization after 60 min, per cent of calpain-only control; conditions: degradation rate of DSP R451G by calpain; read-out: % of control remaining
T3 construct: gene DSP; N-terminal spectrin repeat/SH3 fragment, residues 178-627; pGEX-1 GST fusion cut with thrombin, E. coli BL21(DE3); fluorescein-5-maleimide label on exposed cysteines (C405, C524)
T3 sequence (P15924 178-627 R451G): T1 sequence (P15924 178-627 S442F) with F265S, R274G
Description: as §1

sDSP (DSP178–627) [4] = biological target: T1, sDSP (DSP178–627); parameters: FITC-sDSP degradation by calpain (1:20), fluorescence polarization after 60 min, per cent of calpain-only control; conditions: degradation rate of DSP S442F by calpain; read-out: % of control remaining
Description: as §1

sDSP S507F = biological target: T4, sDSP S507F (Homo sapiens, UniProt P15924, S507F); parameters: FITC-sDSP degradation by calpain (1:20), fluorescence polarization after 60 min, per cent of calpain-only control; conditions: degradation rate of DSP S507F by calpain; read-out: % of control remaining
T4 construct: gene DSP; N-terminal fragment, residues 178-627
Description: as §1

T4 sequence (P15924 whole entry S507F, the tested form may be a part): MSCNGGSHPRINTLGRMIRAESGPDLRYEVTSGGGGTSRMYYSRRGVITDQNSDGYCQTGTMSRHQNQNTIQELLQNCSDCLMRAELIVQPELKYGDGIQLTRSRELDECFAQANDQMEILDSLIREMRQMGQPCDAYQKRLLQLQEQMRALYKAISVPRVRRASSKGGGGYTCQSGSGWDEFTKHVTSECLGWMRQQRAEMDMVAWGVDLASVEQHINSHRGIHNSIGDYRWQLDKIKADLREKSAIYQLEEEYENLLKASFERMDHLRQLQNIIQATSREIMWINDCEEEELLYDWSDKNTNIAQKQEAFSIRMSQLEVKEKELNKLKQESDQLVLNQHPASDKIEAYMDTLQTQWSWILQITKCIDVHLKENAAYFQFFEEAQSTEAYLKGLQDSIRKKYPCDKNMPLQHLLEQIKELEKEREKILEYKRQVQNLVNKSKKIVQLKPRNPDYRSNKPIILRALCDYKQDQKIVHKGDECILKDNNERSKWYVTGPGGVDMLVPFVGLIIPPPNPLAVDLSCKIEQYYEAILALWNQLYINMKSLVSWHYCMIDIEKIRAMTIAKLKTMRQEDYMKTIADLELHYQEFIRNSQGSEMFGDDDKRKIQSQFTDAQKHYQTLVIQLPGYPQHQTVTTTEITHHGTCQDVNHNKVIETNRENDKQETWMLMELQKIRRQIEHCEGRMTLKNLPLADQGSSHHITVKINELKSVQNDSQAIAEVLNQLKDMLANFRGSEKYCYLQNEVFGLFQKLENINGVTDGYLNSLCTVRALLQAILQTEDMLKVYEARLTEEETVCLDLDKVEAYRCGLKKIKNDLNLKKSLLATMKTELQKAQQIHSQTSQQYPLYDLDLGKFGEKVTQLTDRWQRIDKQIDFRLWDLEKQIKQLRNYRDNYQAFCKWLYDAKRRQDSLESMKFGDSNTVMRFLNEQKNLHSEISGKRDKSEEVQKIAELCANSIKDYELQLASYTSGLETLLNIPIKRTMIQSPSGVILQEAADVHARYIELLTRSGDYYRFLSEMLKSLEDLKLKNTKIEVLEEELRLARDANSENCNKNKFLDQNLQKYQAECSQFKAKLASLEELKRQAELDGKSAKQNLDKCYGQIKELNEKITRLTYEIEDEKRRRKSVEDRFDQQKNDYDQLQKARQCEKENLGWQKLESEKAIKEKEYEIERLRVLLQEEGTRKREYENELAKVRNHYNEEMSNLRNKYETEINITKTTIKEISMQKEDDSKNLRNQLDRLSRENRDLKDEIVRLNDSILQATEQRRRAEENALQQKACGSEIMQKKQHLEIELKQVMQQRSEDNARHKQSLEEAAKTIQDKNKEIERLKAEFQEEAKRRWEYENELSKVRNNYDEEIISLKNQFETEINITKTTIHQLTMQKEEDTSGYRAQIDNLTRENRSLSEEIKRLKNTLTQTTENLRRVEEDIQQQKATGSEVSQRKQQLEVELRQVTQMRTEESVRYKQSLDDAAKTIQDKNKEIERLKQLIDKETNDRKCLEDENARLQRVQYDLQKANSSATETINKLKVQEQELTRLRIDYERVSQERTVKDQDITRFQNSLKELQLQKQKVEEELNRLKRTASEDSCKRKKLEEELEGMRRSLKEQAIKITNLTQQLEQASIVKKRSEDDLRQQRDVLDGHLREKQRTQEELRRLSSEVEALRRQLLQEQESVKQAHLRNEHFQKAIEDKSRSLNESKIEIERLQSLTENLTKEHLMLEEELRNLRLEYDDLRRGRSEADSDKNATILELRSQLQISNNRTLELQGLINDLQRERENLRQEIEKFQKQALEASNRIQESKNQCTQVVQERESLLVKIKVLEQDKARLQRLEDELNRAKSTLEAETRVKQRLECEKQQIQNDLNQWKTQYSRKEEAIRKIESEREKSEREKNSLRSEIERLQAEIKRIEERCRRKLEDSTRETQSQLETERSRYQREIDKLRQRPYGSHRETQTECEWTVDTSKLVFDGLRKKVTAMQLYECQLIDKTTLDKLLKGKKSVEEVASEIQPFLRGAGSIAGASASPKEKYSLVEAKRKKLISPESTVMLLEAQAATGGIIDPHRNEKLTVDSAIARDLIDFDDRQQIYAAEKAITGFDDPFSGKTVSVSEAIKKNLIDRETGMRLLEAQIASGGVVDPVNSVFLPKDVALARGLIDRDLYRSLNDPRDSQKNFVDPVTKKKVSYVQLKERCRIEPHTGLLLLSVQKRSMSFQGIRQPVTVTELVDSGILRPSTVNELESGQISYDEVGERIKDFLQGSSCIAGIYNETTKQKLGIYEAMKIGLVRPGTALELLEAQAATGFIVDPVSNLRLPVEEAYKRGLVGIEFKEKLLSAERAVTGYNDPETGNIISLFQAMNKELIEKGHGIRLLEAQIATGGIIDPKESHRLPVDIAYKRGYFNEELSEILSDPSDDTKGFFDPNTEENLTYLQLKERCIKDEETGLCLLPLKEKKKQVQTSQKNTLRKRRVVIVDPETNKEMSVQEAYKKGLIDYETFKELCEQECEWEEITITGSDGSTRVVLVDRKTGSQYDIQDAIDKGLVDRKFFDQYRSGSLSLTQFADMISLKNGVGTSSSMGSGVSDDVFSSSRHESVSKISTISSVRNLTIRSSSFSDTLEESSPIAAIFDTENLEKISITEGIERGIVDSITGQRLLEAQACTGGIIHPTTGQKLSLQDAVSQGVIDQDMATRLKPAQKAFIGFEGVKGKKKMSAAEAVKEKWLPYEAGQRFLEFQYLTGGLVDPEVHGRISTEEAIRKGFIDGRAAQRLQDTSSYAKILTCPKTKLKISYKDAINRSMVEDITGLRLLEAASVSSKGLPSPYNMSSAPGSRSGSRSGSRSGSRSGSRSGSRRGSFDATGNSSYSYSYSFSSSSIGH

remaining activity at 500 µM (sDSP (DSP178–627) [1]): -8%
remaining activity at 500 µM (sDSP (DSP178–627) [2]): 32%
remaining activity at 500 µM (sDSP (DSP178–627) [3]): -5%
remaining activity at 500 µM (sDSP (DSP178–627) [4]): 29%
remaining activity at 500 µM (sDSP S507F): 26%
SMILES: CC(C)=CCC/C(C)=C/CC/C(C)=C/CSc1ccccc1C(=O)O [salirasib]
